One assay has as its target recombinant human PIM2 (Homo sapiens, UniProt Q9P1W9). The experiment in a line: PIM-2 kinase assay, 33P-ATP filter plate. It is filed as biochemical. The following applies: PIM2, 5 μM ATP; read-out: PIM2 IC50 (printed in the PIM1: IC50 (μM) column). As for the experimental part:
Test compounds dissolved and diluted in DMSO (2 μl) were added to a reaction mixture comprising 10 μl of 5× Reaction Buffer (40 mM MOPS pH 7.0, 5 mM EDTA), 10 μl of recombinant human PIM2 solution (4 ng PIM-2 dissolved in dilution buffer (20 mM MOPS pH 7.0; EDTA 1 mM; 5% Glycerol; 0.01% Brij 35; […]; […] 2-mercaptoethanol; 1 mg/ml BSA)) and 8 ul of water. Reactions were initiated by the addition of 10 ul of ATP Solution ([…] (15 mM MgCl2; 75 uM ATP) 1% ([γ-33P]ATP: Stock 1 mCi/100 μl; 3000 Ci/mmol (Perkin Elmer)) and 10 ul of substrate peptide solution (RSRSSYPAGT SEQ ID NO.: 6, dissolved in water at a concentration of 1 mM), Reactions were maintained for 10 min at 30° C. The reactions were quenched with 100 ul of 0.75% Phosphoric acid, then transferred to and filtered through a Phosphocellulose filter plate (Millipore, MSPH-N6B-50). After washing each well 4 times with 0.75% Phosphoric acid, scintillation fluid (20 uL) was added to each well and the residual radioactivity was measured using a Wallac luminescence counter.

The target of another assay is T1, recombinant human CK2 (Homo sapiens, UniProt P68400).
T1 construct: purchased Upstate
T1 sequence (P68400 whole entry): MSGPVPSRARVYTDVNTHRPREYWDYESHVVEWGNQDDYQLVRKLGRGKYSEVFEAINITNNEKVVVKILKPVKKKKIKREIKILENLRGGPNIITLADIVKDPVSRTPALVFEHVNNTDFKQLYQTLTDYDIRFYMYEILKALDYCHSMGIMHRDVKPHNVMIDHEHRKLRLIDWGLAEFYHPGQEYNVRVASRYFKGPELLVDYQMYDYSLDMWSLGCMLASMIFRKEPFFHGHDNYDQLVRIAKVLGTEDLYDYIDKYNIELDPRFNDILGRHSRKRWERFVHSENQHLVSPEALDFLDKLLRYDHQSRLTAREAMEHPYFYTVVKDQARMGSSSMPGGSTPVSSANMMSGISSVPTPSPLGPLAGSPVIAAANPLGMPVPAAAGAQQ
T1 sequence (P67870 whole entry partner): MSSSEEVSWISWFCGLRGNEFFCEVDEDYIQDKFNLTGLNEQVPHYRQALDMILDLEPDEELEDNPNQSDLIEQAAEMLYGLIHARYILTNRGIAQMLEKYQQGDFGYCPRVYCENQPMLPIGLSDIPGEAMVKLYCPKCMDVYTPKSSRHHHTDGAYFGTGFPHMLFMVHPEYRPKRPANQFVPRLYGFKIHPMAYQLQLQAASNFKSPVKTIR
Kind of assay: CK2 assay, cell-free, 33P-ATP filter plate. It counts as biochemical. As for the experimental part:
Modulatory activity of compounds described herein was assessed in vitro in cell-free CK2 assays by the following method.
Test compounds in aqueous solution were added at a volume of 10 microliters, to a reaction mixture comprising 10 microliters Assay Dilution Buffer (ADB; 20 mM MOPS, pH 7.2, 25 mM beta-glycerolphosphate, 5 mM EGTA, 1 mM sodium orthovanadate and 1 mM dithiothreitol), 10 microliters of substrate peptide (RRRDDDSDDD SEQ ID NO.: 4, dissolved in ADB at a concentration of 1 mM), 10 microliters of recombinant human CK2 (25 ng dissolved in ADB; Upstate). Reactions were initiated by the addition of 10 microliters of ATP Solution (90% 75 mM MgCl2, 75 micromolar ATP dissolved in ADB; 10% [γ-^33P]ATP (stock 1 mCi/100 μl; 3000 Ci/mmol (Perkin Elmer) and maintained for 10 minutes at 30 degrees C. The reactions were quenched with 100 microliters of 0.75% phosphoric acid, then transferred to and filtered through a phosphocellulose filter plate (Millipore). After washing each well 5 times with 0.75% phosphoric acid, the plate was dried under vacuum for 5 min and, following the addition of 15 ul of scintillation fluid to each well, the residual radioactivity was measured using a Wallac luminescence counter.

A value given as a limit tells only on which side of the number the result lay.

One may read the IC50 as the midpoint of a concentration-inhibition curve.

Chain of recombinant human PIM2 (Q9P1W9 whole entry): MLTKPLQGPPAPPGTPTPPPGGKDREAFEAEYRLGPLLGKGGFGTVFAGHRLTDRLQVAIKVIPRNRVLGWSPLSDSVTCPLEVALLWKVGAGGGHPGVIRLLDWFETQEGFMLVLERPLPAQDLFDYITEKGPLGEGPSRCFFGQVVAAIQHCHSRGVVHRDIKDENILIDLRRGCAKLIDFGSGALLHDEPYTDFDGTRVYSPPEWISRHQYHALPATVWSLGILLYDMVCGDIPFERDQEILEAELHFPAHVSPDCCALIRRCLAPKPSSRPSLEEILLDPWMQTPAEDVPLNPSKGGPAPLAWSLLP

On to `O=C1NC(=O)/C(=C/c2cnn3ccc(-c4ccc(C(=O)NCC5CC5)s4)nc23)N1`, for which the IC50 on recombinant human PIM2 was 0.58 µM; on recombinant human CK2, under 100 nM.

Regarding `CC(O)CNC(=O)c1ccc(-c2ccn3ncc(/C=C4\NC(=O)NC4=O)c3n2)s1` (stereo not drawn), the IC50 is 0.54 µM on recombinant human PIM2 and under 100 nM on recombinant human CK2.

In the case of `CCOCCNC(=O)c1ccc(-c2ccn3ncc(/C=C4\NC(=O)NC4=O)c3n2)s1`, the IC50 on recombinant human PIM2 was 1.06 µM; at recombinant human CK2, under 100 nM.

Source of the values: US8367681B2, “Pyrazolopyrimidines and related heterocycles as kinase inhibitors” (Cylene Pharmaceuticals, Inc., priority 2009, dated 2013).
